Measurements published in patent US7049334B2, “Enhancement of learning and memory and treatment of amnesia” (priority 2001, dated 2006).
Several values for one entry are separate records, joined by “and”; a condition that tells them apart may be missing. Identical values can stand only once.

How the values were obtained:
[1] = system: Schaffer collateral-CA1 pathway of rat hippocampal slices; experiment: LTP induction in Schaffer collateral-CA1 pathway of hippocampal slices (fEPSP slope); format: cell-based, Wistar rats; details: for fEPSP slope: 1.6 μM perfused 6 min (3 min before and 3 min after tetanus)
rats (spatial memory) = experiment: Morris water maze; format: in vivo
Experimental: Morris water maze: Morris water maze was performed in a circular pool (224 cm in diameter, 46 cm in height) located in a room with distinctive visual cues. Water was filled to a depth of 36 cm and a transparent plastic platform (25×25 cm, 32 cm in height) was located at the center of a fixed quadrant. Rats were trained for two days in the task environment: free-swimming in the pool without the transparent plastic platform. Each training session was 2 min and the rats were picked up from the pool by an experimenter. Then, rats received 4 consecutive daily training trials for the following six days. During each training trial, each rat was placed into the water randomly from one of the quadrants. The rat had to swim until it climbed onto the plastic platform submerged underneath the water. The time duration from being placed into the water to climbing onto the plastic platform was recorded and defined as escape latency. […] Each rat stayed on the platform for 60 s, which also served as the interval of trial. Compound 1 (1 mg/kg) or vehicle was daily injected to each rat 10 min before the first training trial. After the last training trial of each day, each rat was dried by a towel, and an electric heater was placed in its home cage.
Substantial evidence implicates the hippocampus in acquisition and retention of spatial information. See, e.g., Ohon et al. (1979) Behav. Brain Sci. 2: 316–365; and Barnes (1988) Trend Neurosci. 11: 163–169. The effect of Compound 1 on the acquisition of spatial memory in the Morris water maze was tested. Rats received 4 consecutive training trials every day. Compound 1 (1 mg/kg) was daily injected (i.p., 1 mg/kg) 10 min before the first trial of training. […] The escape latencies of 2˜4 trials were 93.8±8.7 s, 79.3±12/3 s and 57.6±12.5 s for a control group, and 50.4±10.2 s, 47.3±6.8 s and 30.3±10.3 for the Compound 1 group (n=10), respectively. The escape latencies of the first trial on the following 3 training days were also markedly shortened in the Compound 1 group. The escape latencies were 91.1±9.8 s, 47.1±3.9 s and 35.3±6.1 s for the control group, and 55.4±12.8 s, 15.3±2.1 s, and 13.4±1.7 s for the Compound 1 group (n=10), respectively. […] The escape latency is shorter in the Compound 1 group throughout the whole experimental period up to 21 days although Compound 1 was only administered […] for 4 days. The mean escape latency on the day-21 is 13.5±1.8 s and 6.0±0.5 s (n=10 each) for the control group and the Compound 1 group, respectively. From results shown above, Compound 1 is a promising drug for improving learning and memory. Compound 1 was mixed with 1.25% carboxymethylcellulose (CMC) and orally delivered to stomach (10 mg/kg) directly 30 min before the first trial for 6 successive days.
Since L-NAME antagonized Compound 1-induced LTP enhancement in hippocampal slices, in vivo experiments were performed to test the effect of L-NAME on the improved learning and memory provoked by Compound 1. In these experiments, rats chronically implanted with cannulae were injected intracerebroventrically with L-NAME (1 mmole/10 mL) or saline 10 min before the first trial of daily training, concomitant with i.p. injection of Compound 1 (1 mg/kg). […] Intracerebroventricular administration of KT 5823 also impaired the Compound 1-induced enhancement.

[2] = system: rats (passive avoidance learning); experiment: One-trial step-through passive inhibitory avoidance task; format: in vivo
From the text: Passive Avoidance and active avoidance task: Rats were trained and tested on a one-trial step-through passive inhibitory avoidance task with a procedure as described in Liang et al. (1998, Chin. J. Physiol. 41: 33–44). Briefly, an apparatus was a trough-shape alley divided by a sliding door into a well-lit safe compartment and a dark shock compartment. A rat was placed in the lit side facing away from the door. As the rat turned around, the door was opened. After the rat stepped into the dark compartment, it received an inescapable footshock via a constant current shocker controlled by a timer (Lafayette Instruments, Model 80240 and Model 58010, Indiana, USA). After administration of the foot-shock, the rat was removed from the alley and returned to its home cage. In a retention test given 24 hrs or 10 days later, the rat was reintroduced into the alley and the latency of stepping into the shock compartment with all four feet was taken as a retention score.
The amygdala is also implicated in learning and memory. Studies have shown that this brain structure is particularly involved in processing affective information. See, e.g., Cahill and McGaugh (1990) Behav. Neurosci. 104: 532–543; and Gilbert et al. (1991) Behav. Neurosci. 105: 533–561. It has been reported that nitric oxide is also involved in activity-dependent synaptic plasticity and passive avoidance learning in amygdaloid nucleus. See, e.g., Bernabeu et al. (1995) NeuroReport 6: 1498–1500; Watanabe et al. (1995) Brain Res. 688: 233–236; and Teledgy and Kokavszky (1997) Neuropharmacology 36: 1583–1587. The effect of Compound 1 on passive avoidance learning was studied. Compound 1 was injected (i.p., 1 mg/kg) 10 min before foot-shock training. […] The memory lasts for several days. The retention scores were very high even if tested on day 10. There were much more rats which had retention latencies longer than 5 min in Compound 1-treated rats (2 out of 15 in a control group and 11 out of 12 in a Compound 1-treated group, respectively) tested on both day-1 and day-10. When the Compound 1 was mixed with 1.25% CMC and delivered to stomach directly (10 mg/kg) before foot-shock. The retention test was performed 1 day and 10 days later, respectively. […] Rats of 1-year-old were chosen for this experiment. Compound 1 (1 mg/kg) was i.p. injected 10 min before foot-shock. The retention test was performed 1 day and 10 days later, respectively.

[3] = i.p. 1 mg/kg daily 10 min before first trial, n=10
[4] = aged rats (1-year-old), i.p. 1 mg/kg 10 min before foot-shock
[5] = aged rats (1-year-old), i.p. 1 mg/kg 10 min before foot-shock, 1 mg/kg
[6] = oral 10 mg/kg in 1.25% CMC before foot-shock
[7] = oral 10 mg/kg in 1.25% CMC before foot-shock, ceiling 300 s or 600 s, 10 mg/kg

OCc1ccc(-c2nn(Cc3ccccc3)c3ccccc23)o1 [Compound 1, 1-benzyl-3-(5′-hydroxymethyl-2′-furyl)-indazole]
LTP when compound added after tetanus ([1]; 1.6 μM added to ACSF 10 min after 2 trains of strong tetanus (100 Hz/1 sec)): not further potentiated
fEPSP slope, simultaneous application of AP-5 and MCPG ([1]; AP-5 and MCGP applied simultaneously with Compound 1): 111.5±12.3%
LTP induced by Compound 1, concomitant perfusion with L-NAME ([1]; L-NAME 300 μM (nitric oxide synthase inhibitor)): significantly attenuated
LTP induced by Compound 1, with Zinc protoporphyrin ([1]; Zinc protoporphyrin 1 μM (heme oxygenase inhibitor)): did not affect
fEPSP ([1]; fEPSP slope 60 min after weak tetanus (50 Hz, 0.5 s), 1.6 μM perfused 3 min before and 3 min after tetanus): 172.9%
fEPSP slope ([1]; strong tetanus (two 100 Hz, 1 sec trains 20 sec apart), at 50 min after tetanus, % of base-line slope): 404.7±34.9%
fEPSP slope ([1]; weak tetanus (20 Hz, 0.5 sec train), at 1 hr): 172.9±10.7%
fEPSP slope, co-perfused with AP5 ([1]; weak tetanus (50 Hz/0.5 s), with AP5 100 μM (NMDA receptor antagonist)): 142.1±13.5%
fEPSP slope, co-perfused with KT5823 ([1]; weak tetanus (50 Hz/0.5 s), with KT 5823 2 μM (protein kinase G inhibitor)): 112.9±5.4%
fEPSP slope, co-perfused with ODQ ([1]; weak tetanus (50 Hz/0.5 s), with ODQ 5 μM (soluble guanylyl cyclase inhibitor)): 107.8±3.9%
LTP induced by Compound 1, co-perfused with MCPG ([1]; with MCPG 100 μM): reduced
enhanced learning and memory induced by Compound 1, with L-NAME (rats (spatial memory); L-NAME intracerebroventricular 10 min before first trial, with i.p. Compound 1 (1 mg/kg)): significantly blocked
escape latency, trial 2 of first training day (rats (spatial memory); [3]): 50.4 ± 10.2 s
escape latency, trial 3 of first training day (rats (spatial memory); [3]): 47.3 ± 6.8 s
escape latency, trial 4 of first training day (rats (spatial memory); i.p. 1 mg/kg daily 10 min before first trial, n=10, in s (unit assumed)): 30.3±10.3
escape latency of the first trial, first of the following 3 training days (rats (spatial memory); i.p. 1 mg/kg, n=10): 55.4 ± 12.8 s
escape latency of the first trial, second of the following 3 training days (rats (spatial memory); i.p. 1 mg/kg, n=10): 15.3 ± 2.1 s
escape latency of the first trial, third of the following 3 training days (rats (spatial memory); i.p. 1 mg/kg, n=10): 13.4 ± 1.7 s
mean escape latency on day-21 (rats (spatial memory); i.p. 1 mg/kg, n=10): 6.0 ± 0.5 s
Compound 1-induced enhancement, with KT 5823 (rats (spatial memory); intracerebroventricular KT 5823): impaired
effect of oral administration on memory (rats (spatial memory); oral 10 mg/kg in 1.25% CMC, 30 min before first trial for 6 successive days): promoted short-term and long-term memory
enhancement effect induced by Compound 1, with KT5823 ([2]; KT5823 i.c.v. 0.2 nmole): significantly antagonized
enhancement effect induced by Compound 1, with L-NAME ([2]; L-NAME i.c.v. 1 mmole): significantly antagonized
retention scores when given before context training ([2]; administered 10 min before the context training instead of the foot-shock): prolonged the retention scores
Retention Scores Day-1, mean ± std [2, 4]: mean ± std 233.0 ± 47.3 sec
Retention Scores Day-10, mean ± std [2, 4]: 181.4 ± 55.7 s
Retention Scores Day-1, individual rats [2, 5]: >300 sec (3×) and 207.1 sec and 58.1 sec
Retention Scores Day-10, individual rats [2, 5]: 252.2 s and 255.9 s and 85.8 s and >300 s and 12.9 s
retention latencies in the lighted compartment ([2]; i.p. 1 mg/kg 10 min before foot-shock training): markedly prolonged
rats with retention latencies longer than 5 min ([2]; i.p. 1 mg/kg, tested on both day-1 and day-10): 11 out of 12
effect on avoidance behavior when injected after foot-shock ([2]; injected 30 min after foot-shock): did not exert any effect
Retention Scores Day-1, mean ± std [2, 6]: mean ± std 369.2 ± 70.2 sec
Retention Scores Day-10, mean ± std [2, 6]: 437.3 ± 62.4 s
Retention Scores Day-1, individual rats [2, 7]: >600 sec (4×) and 15.0 sec and >300 sec (4×) and 77.1 sec
Retention Scores Day-10, individual rats [2, 7]: 454.0 sec and >600 sec (4×) and 15.0 sec and 207.1 sec and 453.2 sec and 343.2 sec and 500.2 sec
